Source: PubChem BioAssay (NCI)
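Growth conditions: 96-well plates. Treatment: test compound, 48 hours, 5 concentrations. Analysis: linear interpolation between bracketing concentrations; unreached endpoints set to highest concentration. TGI marks complete inhibition of growth.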

Columns and labels:
Assay in all cases: DTP human tumour cell line panel, 48 h
SNB-75 CNS = test system: SNB-75 CNS
TK-10 renal = test system: TK-10 renal
HL-60(TB) leukemia = test system: HL-60(TB) leukemia
MDA-MB-435 = test system: MDA-MB-435
T-47D breast = test system: T-47D breast
NCI-H522 lung = test system: NCI-H522 lung
MDA-MB-231 breast = test system: MDA-MB-231 breast
NCI/ADR-RES ovarian = test system: NCI/ADR-RES ovarian
HS 578T breast = test system: HS 578T breast
DLD-1 colon = test system: DLD-1 colon
HOP-18 NSCLC = test system: HOP-18 NSCLC

Structure (SMILES)	TGI (SNB-75 CNS) [µM]	TGI (TK-10 renal) [µM]	TGI (HL-60(TB) leukemia) [µM]	TGI (MDA-MB-435) [µM]	TGI (T-47D breast) [µM]	TGI (NCI-H522 lung) [µM]	TGI (MDA-MB-231 breast) [µM]	TGI (NCI/ADR-RES ovarian) [µM]	TGI (HS 578T breast) [µM]	TGI (DLD-1 colon) [µM]	TGI (HOP-18 NSCLC) [µM]
O=C1/C(=C/c2ccccc2S)N=C(c2ccccc2)N1c1nc2ccc(Sc3ccccc3)cc2[nH]1	93.5	70.3	52.1	29.7	> 100	54.2	71.6	50.4	72.6	–	–
COc1cc2c(cc1OCCCCOc1cc(-c3ccc(F)cc3)nc(C)n1)N=C[C@@H]1CCCN1C2=O	17.8	0.487	28.7	1.42	1.14	2.28	5.18	2.12	2.79	–	–
Cc1ccccc1OC(C)C(=O)NN1C(=O)CC(=O)N(c2ccc(Cl)cc2)C1=S (stereo not given)	> 100	> 100	39.8	> 100	> 100	> 100	> 100	> 100	> 100	–	–
CC(C)(C)C1=Cc2cc3cc(C(C)(C)C)[nH]c(=O)c3cc2S(=O)(=O)N1	> 100	88.3	43.1	–	–	32.3	–	–	–	> 100	–
COc1ccc(-c2cc(=O)c3cc4c(cc3[nH]2)OCO4)c(OC)c1OC	82.2	> 100	> 100	–	–	> 100	–	–	–	> 100	> 100
O=C1C(c2c(O)[nH]c3ccc(S(=O)(=O)O)cc23)=Nc2ccccc21	> 100	> 100	> 100	> 100	> 100	> 100	> 100	> 100	> 100	–	–
Nc1nn2c(C(Br)Br)cc(C(Br)Br)nc2c1[N+](=O)[O-]	2.29	2.28	0.431	1.76	5.27	0.248	2.95	> 34	6.28	–	–
C/C(=C\c1ccccc1)C(=O)CCN1CCOCC1	> 66.1	–	> 74.3	–	–	22.3	–	50.5	–	33.4	32.3
COCOc1ccc(OC)cc1	> 100	–	> 100	–	–	–	–	> 100	–	> 100	> 100
Cc1cn2c(/C=C3/C(=O)Nc4cccc(Cl)c43)c(Cl)nc2s1	43.6	37.4	> 100	> 100	> 100	> 100	> 100	> 100	42.5	–	–
CC(=O)OC[C@]1(C(=O)C(O)c2ccoc2)[C@H](C)CC[C@@]23COC(=O)C2=CCC[C@@H]31 (stereo not given in full)	> 10	> 10	> 10	> 10	> 10	> 10	> 10	> 10	> 10	–	–
O=C(CN1CCCCC1)CC(O)(C(F)(F)F)C(F)(F)F	> 100	> 100	> 100	> 100	> 100	> 100	> 100	> 100	> 100	–	–
CSCCC(NCc1c(O)ccc2c(-c3ccccc3)cc(=O)oc12)C(=O)O (stereo not given)	> 100	> 100	> 100	> 100	> 100	> 100	> 100	> 100	> 100	–	–
CCSC1=CC(=O)c2nc3ccccc3c3ccnc1c23	26.6	26.5	7.74	3.43	78.2	3.78	31.8	> 30.1	14.7	–	–
CC(C)=CCc1c2c(c3occ(-c4ccc(O)c(O)c4)c(=O)c3c1O)C=CC(C)(C)O2	8.51	3.67	0.246	3.2	10.5	0.458	2.97	5.87	3.73	–	–
O=c1c2ncn(C3CC(O)C(CO)O3)c2nnn1Cc1ccccc1[N+](=O)[O-] (stereo not given)	> 100	> 100	> 100	> 100	> 100	> 100	> 100	> 100	> 100	–	–
